Assay results reported in ChEMBL document CHEMBL3046123, “Molecular bases for resistance to acetyl-coenzyme A carboxylase inhibitor in Japanese foxtail (Alopecurus japonicus)” (Pest Manag Sci, 2012).

Assays:
[1] = system: Alopecurus japonicus; assay: Resistance index, ratio of ED50 for haloxyfop-R-methyl-resistant Alopecurus japonicus (Japanese foxtail) biotype Js-R to ED50 for haloxyfop-R-methyl-sensitive Alopecurus japonicus (Japanese foxtail) biotype Js-S; format: functional
[2] = system: Alopecurus japonicus; assay: Herbicidal activity against haloxyfop-R-methyl-sensitive Alopecurus japonicus (Japanese foxtail) biotype Js-S assessed as inhibition of shoot length after 14 days; format: functional
[3] = system: Alopecurus japonicus; assay: Herbicidal activity against haloxyfop-R-methyl-resistant Alopecurus japonicus (Japanese foxtail) biotype Js-R assessed as inhibition of shoot length after 14 days; format: functional
[4] = biological target: ACCase (Alopecurus japonicus) (UniProt H9BT73); assay: Resistance index, ratio of I50 for ACCase in haloxyfop-R-methyl-resistant Alopecurus japonicus (Japanese foxtail) biotype Js-R to I50 for Acetyl-CoA carboxylase (ACCase) in haloxyfop-R-methyl-sensitive Alopecurus japonicus (Japanese foxtail) biotype Js-S
[5] = biological target: T1, ACCase (Alopecurus japonicus, UniProt H9BT73); assay: Inhibition of Acetyl-CoA carboxylase (ACCase) in haloxyfop-R-methyl-resistant Alopecurus japonicus (Japanese foxtail) biotype Js-R shoot extracts; details: read-out: I50
[6] = biological target: T1, ACCase; assay: Inhibition of Acetyl-CoA carboxylase (ACCase) in haloxyfop-R-methyl-sensitive Alopecurus japonicus (Japanese foxtail) biotype Js-S shoot extracts; details: read-out: I50

C#CCOC(=O)[C@@H](C)Oc1ccc(Oc2ncc(Cl)cc2F)cc1 [CLODINAFOP PROPARGYL]
Ratio [1]: 5.84 | ED50 [2]: 0.721 mg/m2 | ED50 [3]: 4.209 mg/m2

CCCCOC(=O)[C@H](C)Oc1ccc(Oc2ccc(C#N)cc2F)cc1 [CYHALOFOP-BUTYL]
Ratio [1]: 4.85 | ED50 [2]: 0.144 mg/m2 | ED50 [3]: 0.698 mg/m2

CCOC(=O)[C@@H](C)Oc1ccc(Oc2nc3ccc(Cl)cc3o2)cc1 [FENOXAPROP-P-ETHYL]
Ratio [1]: 11.35 | ED50 [2]: 0.114 mg/m2 | ED50 [3]: 1.289 mg/m2

CC(Oc1ccc(Oc2ncc(C(F)(F)F)cc2Cl)cc1)C(=O)O (stereo not given) [HALOXYFOP]
Ratio [4]: 10.8 | IC50 [5]: 28 nM | IC50 [6]: 2.6 nM

CCOC(=O)[C@@H](C)Oc1ccc(Oc2cnc3cc(Cl)ccc3n2)cc1 [QUIZALOFOP-P-ETHYL]
Ratio [1]: 35.87 | ED50 [2]: 0.426 mg/m2 | ED50 [3]: 15.283 mg/m2
